The values that follow come from PubChem BioAssay (NCI).

Molecules are shown by their SMILES.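 Growth conditions: 96-well plates. Treatment: test compound, 48 hours, 5 concentrations. Analysis: linear interpolation between bracketing concentrations; unreached endpoints set to highest concentration. GI50 = concentration required for 50% inhibition of growth. TGI is the concentration that stops growth completely.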 Some results are limits rather than exact numbers.

Some test systems named below: NCI/ADR-RES ovarian; SF-268 CNS; U251 CNS; K-562 leukemia; SK-MEL-28 melanoma; HL-60(TB) leukemia; A498 renal; NCI-H460 lung; MOLT-4 leukemia; SW-620 colon.
Holding throughout (assay): growth of human tumour cells (NCI), 48 h

Consider `Cc1cc2c3ccccc3ccc2[n+]2ccccc12`, for which the GI50 is over 100 µM in the experiment with NCI/ADR-RES ovarian; 0.839 µM in the experiment with SF-268 CNS; 1.06 µM in the experiment with U251 CNS; 4.32 µM in the experiment with K-562 leukemia; 3.07 µM in the experiment on SK-MEL-28 melanoma; 14.3 µM in the experiment on HL-60(TB) leukemia. Moreover, the GI50 with A498 renal was 5.43 µM; with NCI-H460 lung it was 8.81 µM; in the experiment with MOLT-4 leukemia, 4.64 µM; with SW-620 colon, 2.99 µM. Also, the TGI was over 100 µM with NCI/ADR-RES ovarian; 3.92 µM in the experiment with SF-268 CNS; 10.1 µM with U251 CNS; 32.8 µM with K-562 leukemia; 12.7 µM in the experiment on SK-MEL-28 melanoma; 46.3 µM with HL-60(TB) leukemia. Also, the TGI with A498 renal is over 100 µM; in the experiment with NCI-H460 lung, 28.1 µM; in the experiment with MOLT-4 leukemia, 28.2 µM; in the experiment with SW-620 colon, 32.8 µM.
Regarding `Nc1c(C(=O)c2cccc(CCC3(O)CCCC3)c2)cnn1-c1ccc(F)cc1`, the GI50 with NCI/ADR-RES ovarian is 7.68 µM; in the experiment with SF-268 CNS, over 18.5 µM; in the experiment on U251 CNS, 14.2 µM; in the experiment with K-562 leukemia, 10.1 µM; in the experiment on SK-MEL-28 melanoma, over 22.9 µM; in the experiment with HL-60(TB) leukemia, 16.2 µM. Besides, the GI50 was 3.62 µM in the experiment on A498 renal, 20.5 µM with NCI-H460 lung, 10.2 µM in the experiment on MOLT-4 leukemia and over 20.7 µM in the experiment with SW-620 colon. Also, the TGI in the experiment on NCI/ADR-RES ovarian, in the experiment on SF-268 CNS, in the experiment with U251 CNS, in the experiment on K-562 leukemia, in the experiment with SK-MEL-28 melanoma and with HL-60(TB) leukemia was over 25 µM each time. Further, the TGI with A498 renal, with NCI-H460 lung, with MOLT-4 leukemia and in the experiment with SW-620 colon was over 25 µM each time.
Take `CC1=CC2=C(C(N)=O)C(=O)OC2(C)C(c2ccccc2)C1` (centres undefined): the TGI in the experiment on NCI/ADR-RES ovarian, with SF-268 CNS, with U251 CNS, in the experiment with K-562 leukemia, in the experiment with SK-MEL-28 melanoma and with HL-60(TB) leukemia was over 100 µM in each case. The TGI in the experiment with A498 renal, in the experiment with NCI-H460 lung, in the experiment on MOLT-4 leukemia and with SW-620 colon was over 100 µM each time.
Consider `Nc1ccn(C2CC(O)C(CO)O2)c(=O)n1` (centres undefined), for which the GI50 in the experiment with NCI/ADR-RES ovarian, in the experiment with SF-268 CNS, in the experiment with U251 CNS, in the experiment on K-562 leukemia, in the experiment on SK-MEL-28 melanoma and with HL-60(TB) leukemia was over 5000 µM throughout. Moreover, the GI50 in the experiment on A498 renal, in the experiment on NCI-H460 lung, in the experiment with MOLT-4 leukemia and with SW-620 colon was over 5000 µM throughout. For the same molecule, the TGI in the experiment with NCI/ADR-RES ovarian, in the experiment with SF-268 CNS, in the experiment with U251 CNS, in the experiment on K-562 leukemia, with SK-MEL-28 melanoma and in the experiment with HL-60(TB) leukemia was over 5000 µM throughout. Besides, the TGI in the experiment with A498 renal, with NCI-H460 lung, with MOLT-4 leukemia and with SW-620 colon was over 5000 µM each time.
On to `Cc1cccc(NC(=O)CCl)c1`, for which the TGI was over 10 µM with NCI/ADR-RES ovarian; over 10 µM with SF-268 CNS; 5.64 µM in the experiment on U251 CNS; over 10 µM in the experiment with K-562 leukemia; over 10 µM in the experiment on SK-MEL-28 melanoma; over 10 µM with HL-60(TB) leukemia. Further, the TGI in the experiment with A498 renal, in the experiment on NCI-H460 lung, with MOLT-4 leukemia and in the experiment with SW-620 colon was over 10 µM in each case.
Turning to `CCOC(=O)Cn1c(C)c(/C=N/NC(=O)c2cc3c(ccc4ccccc43)o2)c2ccccc21`, the GI50 in the experiment on NCI/ADR-RES ovarian was 0.259 µM; in the experiment on SF-268 CNS it was 1.03 µM; in the experiment with U251 CNS, 0.426 µM; in the experiment with K-562 leukemia, 0.342 µM; in the experiment with SK-MEL-28 melanoma, 1.66 µM; with HL-60(TB) leukemia it was 0.345 µM. Moreover, the GI50 is 0.134 µM in the experiment with A498 renal, 0.383 µM in the experiment with NCI-H460 lung, 0.96 µM in the experiment with MOLT-4 leukemia and 0.48 µM with SW-620 colon. Also, the TGI was 3.08 µM in the experiment on NCI/ADR-RES ovarian; 4.17 µM in the experiment with U251 CNS; over 100 µM with K-562 leukemia; 30.5 µM in the experiment on SK-MEL-28 melanoma; 7.83 µM in the experiment with HL-60(TB) leukemia; 1.04 µM with A498 renal. The TGI with NCI-H460 lung is 1.79 µM; in the experiment on MOLT-4 leukemia, over 30.1 µM; in the experiment with SW-620 colon, 11.4 µM.
As for `O=c1oc2ccc(Cl)cc2c(=O)n1-c1cc(C(F)(F)F)cc(C(F)(F)F)c1`, the GI50 with NCI/ADR-RES ovarian is 0.264 µM; in the experiment with SF-268 CNS it was 0.262 µM; in the experiment on U251 CNS, 0.254 µM; in the experiment on K-562 leukemia, 0.211 µM; with SK-MEL-28 melanoma, 0.273 µM; in the experiment with HL-60(TB) leukemia, 0.231 µM. In addition, the GI50 in the experiment on A498 renal was 0.0531 µM; in the experiment on NCI-H460 lung, 0.308 µM; in the experiment with MOLT-4 leukemia, 0.352 µM; with SW-620 colon it was 0.328 µM. Further, the TGI in the experiment on NCI/ADR-RES ovarian was 1.37 µM; in the experiment on SF-268 CNS, 5.5 µM; with U251 CNS it was 11.6 µM; in the experiment with K-562 leukemia, over 38 µM; in the experiment with SK-MEL-28 melanoma it was 1.69 µM; in the experiment on HL-60(TB) leukemia, 0.553 µM. Further, the TGI in the experiment with A498 renal was 0.311 µM; in the experiment with NCI-H460 lung, 5.16 µM; in the experiment on MOLT-4 leukemia, 2.48 µM; with SW-620 colon, 5.95 µM.
With `COc1ccc(/C=C/C(=O)c2ccc3cc(OC)c(OC)cc3c2)cc1OC`, the GI50 is 2.71 µM in the experiment with NCI/ADR-RES ovarian; 4.45 µM in the experiment with SF-268 CNS; 3.33 µM in the experiment on U251 CNS; 3.02 µM in the experiment with K-562 leukemia; 11.2 µM with SK-MEL-28 melanoma; 3.46 µM in the experiment on HL-60(TB) leukemia. Further, the GI50 with A498 renal was 2.66 µM; in the experiment on NCI-H460 lung it was 3.35 µM; in the experiment with MOLT-4 leukemia it was 3.07 µM; in the experiment with SW-620 colon, 3.32 µM. Moreover, the TGI was 8.85 µM in the experiment on NCI/ADR-RES ovarian; 22.6 µM in the experiment on SF-268 CNS; 15.2 µM with U251 CNS; over 100 µM in the experiment on K-562 leukemia; 32.3 µM in the experiment with SK-MEL-28 melanoma; 10.1 µM in the experiment on HL-60(TB) leukemia. For the same molecule, the TGI with A498 renal came out at 23.1 µM; in the experiment on NCI-H460 lung, 12.5 µM; in the experiment with MOLT-4 leukemia it was 9.53 µM; in the experiment with SW-620 colon, 14.2 µM.
